Experimental data as given in the supplement of paper PMC10307832.

Experiments:
Experiment in all cases: relative viability (nuclei count vs DMSO), 5 days (fraction); higher = more cells survive
Doramapimod = compound: Cc1ccc(-n2nc(C(C)(C)C)cc2NC(=O)Nc2ccc(OCCN3CCOCC3)c3ccccc23)cc1 [Doramapimod]
In short: (§1)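 MetaXpress counted nuclei in 4× images of lung cancer cell lines that had been fixed, permeabilised and Hoechst-stained in one step. Before that, cells in 1536-well plates were kept overnight at 37 °C, pinned with five √10-spaced library-drug doses on vehicle-anchored plates, and cultured 5 days without medium change. Viability takes treated-well nuclei over vehicle-well nuclei and uses the median across plates. Plates were accepted only at control CV below 25% and at least one doubling.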

RAF265 = compound: Cn1c(Nc2ccc(C(F)(F)F)cc2)nc2cc(Oc3ccnc(-c4ncc(C(F)(F)F)[nH]4)c3)ccc21 [RAF265]
In short: as §1

IPA-3 = compound: C1=CC=C2C(=C1)C=CC(=C2SSC3=C(C=CC4=CC=CC=C43)O)O [IPA-3]
In short: as §1

RAF265 + Trametinib = compound: Cn1c(Nc2ccc(C(F)(F)F)cc2)nc2cc(Oc3ccnc(-c4ncc(C(F)(F)F)[nH]4)c3)ccc21 [RAF265] + CC(=O)Nc1cccc(-n2c(=O)n(C3CC3)c(=O)c3c(Nc4ccc(I)cc4F)n(C)c(=O)c(C)c32)c1 [Trametinib] (partner 0.02 µM)
In short: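 Relative viability divides the nuclei count in treated wells by that in vehicle wells. Lung cancer cell lines were seeded in 1536-well plates, dosed by pin tool the next day, and fixed and stained after 5 days in one step with final 0.05% Triton X-100, 1% formaldehyde and 1 ug/ml Hoechst. Dosing was a single drug or a fixed anchor-drug dose plus five library-drug doses (not always all listed) in √10 steps, and values are medians of duplicate plates imaged at 4×.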

UMC-11
relative viability (Doramapimod; 0.02 µM): 0.904 | relative viability (Doramapimod; 0.06325 µM): 0.934 | relative viability (Doramapimod; 0.2 µM): 0.956 | relative viability (Doramapimod; 0.6325 µM): 0.782 | relative viability (Doramapimod; 2 µM): 0.841 | relative viability (RAF265; 0.01 µM): 0.975 | relative viability (RAF265; 0.03162 µM): 0.95 | relative viability (RAF265; 0.1 µM): 0.942 | relative viability (RAF265; 0.3162 µM): 0.948 | relative viability (RAF265; 1 µM): 0.872 | relative viability (IPA-3; 0.2 µM): 1.08 | relative viability (IPA-3; 0.6325 µM): 0.932 | relative viability (IPA-3; 2 µM): 0.967 | relative viability (IPA-3; 6.325 µM): 0.916 | relative viability (IPA-3; 20 µM): 1.09 | relative viability (RAF265 + Trametinib; first compound 0.01 µM): 0.749 | relative viability (RAF265 + Trametinib; first compound 0.03162 µM): 0.634 | relative viability (RAF265 + Trametinib; first compound 0.1 µM): 0.748 | relative viability (RAF265 + Trametinib; first compound 0.3162 µM): 0.855 | relative viability (RAF265 + Trametinib; first compound 1 µM): 0.649
